Data published in PubChem BioAssay AID2060884 (Molecular Pharmacology Branch, DTP, NCI, 2025).
“And” between values parts separate entries of the source, which are not always exact repeats. Equal entries are not always repeated. One block for each compound: values may come before it.

System: NCI-H929 complex spheroids, viability % test/control
Assay: Anticancer human tumor NCI-H929 cell line growth inhibition [RAS];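 further: compound exposure lasted seven days before viability was read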;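 on viability, T/C: 100% = DMSO vehicle control viability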
Conditions: for viability, T/C: stronger effect = lower value
Procedure, shortened: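 Tumour cells grown as complex spheroids with HUVEC endothelial cells and mesenchymal stem cells, treated with RAS pathway inhibitor combinations. Each agent spans half-log steps from near clinical Cmax, or 10 microM where Cmax is unknown.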

[1] = curve of first compound, second compound 0.000949 µM
[2] = curve of first compound, second compound 0.003 µM
[3] = curve of first compound, second compound 0.00949 µM
[4] = curve of first compound, second compound 0.03 µM
[5] = curve of first compound, second compound 0.0949 µM
[6] = curve of first compound, second compound 0.3 µM
[7] = second compound 0.000949 µM, first compound 0.0316 µM
[8] = second compound 0.000949 µM, first compound 0.1 µM
[9] = second compound 0.000949 µM, first compound 0.316 µM
[10] = second compound 0.000949 µM, first compound 1 µM
[11] = second compound 0.000949 µM, first compound 3.16 µM
[12] = second compound 0.000949 µM, first compound 10 µM
[13] = second compound 0.003 µM, first compound 0.0316 µM
[14] = second compound 0.003 µM, first compound 0.1 µM
[15] = second compound 0.003 µM, first compound 0.316 µM
[16] = second compound 0.003 µM, first compound 1 µM
[17] = second compound 0.003 µM, first compound 3.16 µM
[18] = second compound 0.003 µM, first compound 10 µM
[19] = second compound 0.00949 µM, first compound 0.0316 µM
[20] = second compound 0.00949 µM, first compound 0.1 µM
[21] = second compound 0.00949 µM, first compound 0.316 µM
[22] = second compound 0.00949 µM, first compound 1 µM
[23] = second compound 0.00949 µM, first compound 3.16 µM
[24] = second compound 0.00949 µM, first compound 10 µM
[25] = second compound 0.03 µM, first compound 0.0316 µM
[26] = second compound 0.03 µM, first compound 0.1 µM
[27] = second compound 0.03 µM, first compound 0.316 µM
[28] = second compound 0.03 µM, first compound 1 µM
[29] = second compound 0.03 µM, first compound 3.16 µM
[30] = second compound 0.03 µM, first compound 10 µM
[31] = second compound 0.0949 µM, first compound 0.0316 µM
[32] = second compound 0.0949 µM, first compound 0.1 µM
[33] = second compound 0.0949 µM, first compound 0.316 µM
[34] = second compound 0.0949 µM, first compound 1 µM
[35] = second compound 0.0949 µM, first compound 3.16 µM
[36] = second compound 0.0949 µM, first compound 10 µM
[37] = second compound 0.3 µM, first compound 0.0316 µM
[38] = second compound 0.3 µM, first compound 0.1 µM
[39] = second compound 0.3 µM, first compound 0.316 µM
[40] = second compound 0.3 µM, first compound 1 µM
[41] = second compound 0.3 µM, first compound 3.16 µM
[42] = second compound 0.3 µM, first compound 10 µM

IC50 [1]: < 31.6 nM | IC50 [2]: < 31.6 nM | IC50 [3]: < 31.6 nM | IC50 [4]: < 31.6 nM | IC50 [5]: < 31.6 nM | IC50 [6]: < 31.6 nM
SMILES: CC(=O)OC12COC1CC(O)C1(C)C(=O)C(O)C3=C(C)C(OC(=O)C(O)C(NC(=O)OC(C)(C)C)c4ccccc4)CC(O)(C(OC(=O)c4ccccc4)C21)C3(C)C (centres undefined) + CCn1c(-c2cc(N3CCN(C)CC3)cnc2C(C)OC)c2c3cc(ccc31)-c1csc(n1)CC(NC(=O)C1CC1C)C(=O)N1CCCC(N1)C(=O)OCC(C)(C)C2
viability, T/C [7]: 0.9% | viability, T/C [8]: 0.92% | viability, T/C [9]: 1.34% | viability, T/C [10]: 1.14% | viability, T/C [11]: 1.74% | viability, T/C [12]: 1.22% | viability, T/C [13]: 1.12% | viability, T/C [14]: 1.88% | viability, T/C [15]: 1.04% | viability, T/C [16]: 0.64% | viability, T/C [17]: 1.46% | viability, T/C [18]: 0.97% | viability, T/C [19]: 1.36% | viability, T/C [20]: 1.42% | viability, T/C [21]: 1.07% | viability, T/C [22]: 1.07% | viability, T/C [23]: 0.91% | viability, T/C [24]: 1.16% | viability, T/C [25]: 1.81% | viability, T/C [26]: 0.83% | viability, T/C [27]: 0.75% | viability, T/C [28]: 1.71% | viability, T/C [29]: 0.99% | viability, T/C [30]: 1.17% | viability, T/C [31]: 1.09% | viability, T/C [32]: 0.75% | viability, T/C [33]: 0.6% | viability, T/C [34]: 0.56% | viability, T/C [35]: 1.05% | viability, T/C [36]: 0.51% | viability, T/C [37]: 0.99% | viability, T/C [38]: 0.51% | viability, T/C [39]: 0.87% | viability, T/C [40]: 0.72% | viability, T/C [41]: 0.64% | viability, T/C [42]: 0.46%

IC50 [1]: 776 nM | IC50 [2]: 746 nM | IC50 [3]: 814 nM | IC50 [4]: 734 nM | IC50 [5]: 662 nM | IC50 [6]: 619 nM
SMILES: CCN1CCN(Cc2ccc(Nc3ncc(F)c(-c4cc(F)c5nc(C)n(C(C)C)c5c4)n3)nc2)CC1 + CCn1c(-c2cccnc2C(C)OC)c2c3cc(ccc31)N1CCOC(CC(NC(=O)C(C(C)C)N(C)C(=O)C3(F)CCN(C(=O)C#CC(C)(C)N(C)C)CC3)C(=O)N3CCCC(N3)C(=O)OCC(C)(C)C2)C1
viability, T/C (second compound 0.000949 µM, first compound 0.00316 µM): 105% | viability, T/C (second compound 0.000949 µM, first compound 0.01 µM): 97.9% | viability, T/C [7]: 105% | viability, T/C [8]: 101% | viability, T/C [9]: 104% | viability, T/C [10]: 35.1% | viability, T/C (second compound 0.003 µM, first compound 0.00316 µM): 103% | viability, T/C (second compound 0.003 µM, first compound 0.01 µM): 101% | viability, T/C [13]: 103% | viability, T/C [14]: 105% | viability, T/C [15]: 106% | viability, T/C [16]: 31.7% | viability, T/C (second compound 0.00949 µM, first compound 0.00316 µM): 96.8% | viability, T/C (second compound 0.00949 µM, first compound 0.01 µM): 104% | viability, T/C [19]: 99.9% | viability, T/C [20]: 104% | viability, T/C [21]: 107% | viability, T/C [22]: 38.6% | viability, T/C (second compound 0.03 µM, first compound 0.00316 µM): 97.4% | viability, T/C (second compound 0.03 µM, first compound 0.01 µM): 101% | viability, T/C [25]: 106% | viability, T/C [26]: 101% | viability, T/C [27]: 108% | viability, T/C [28]: 30.8% | viability, T/C (second compound 0.0949 µM, first compound 0.00316 µM): 99.4% | viability, T/C (second compound 0.0949 µM, first compound 0.01 µM): 99.5% | viability, T/C [31]: 102% | viability, T/C [32]: 103% | viability, T/C [33]: 104% | viability, T/C [34]: 21.2% | viability, T/C (second compound 0.3 µM, first compound 0.00316 µM): 98.7% | viability, T/C (second compound 0.3 µM, first compound 0.01 µM): 104% | viability, T/C [37]: 105% | viability, T/C [38]: 106% | viability, T/C [39]: 109% | viability, T/C [40]: 11.2%

IC50 [1]: 1310 nM | IC50 [2]: 1430 nM | IC50 [3]: 1640 nM | IC50 [4]: 1450 nM | IC50 [5]: 1200 nM | IC50 [6]: 986 nM
SMILES: CC(C)NCC(C(=O)N1CCN(c2ncnc3c2C(C)CC3O)CC1)c1ccc(Cl)cc1 (centres undefined) + CCn1c(-c2cccnc2C(C)OC)c2c3cc(ccc31)N1CCOC(CC(NC(=O)C(C(C)C)N(C)C(=O)C3(F)CCN(C(=O)C#CC(C)(C)N(C)C)CC3)C(=O)N3CCCC(N3)C(=O)OCC(C)(C)C2)C1
viability, T/C [7]: 106% | viability, T/C [8]: 96.4% | viability, T/C [9]: 98.7% | viability, T/C [10]: 59.4% | viability, T/C [11]: 16.5% | viability, T/C [12]: 2.67% | viability, T/C [13]: 99.5% | viability, T/C [14]: 101% | viability, T/C [15]: 95% | viability, T/C [16]: 65.4% | viability, T/C [17]: 15.5% | viability, T/C [18]: 2.08% | viability, T/C [19]: 98.6% | viability, T/C [20]: 97% | viability, T/C [21]: 99% | viability, T/C [22]: 68.7% | viability, T/C [23]: 23.8% | viability, T/C [24]: 2.36% | viability, T/C [25]: 101% | viability, T/C [26]: 100% | viability, T/C [27]: 98.5% | viability, T/C [28]: 67.7% | viability, T/C [29]: 12.6% | viability, T/C [30]: 1.6% | viability, T/C [31]: 101% | viability, T/C [32]: 102% | viability, T/C [33]: 97.4% | viability, T/C [34]: 57.4% | viability, T/C [35]: 9.37% | viability, T/C [36]: 1.65% | viability, T/C [37]: 103% | viability, T/C [38]: 103% | viability, T/C [39]: 95.1% | viability, T/C [40]: 49.6% | viability, T/C [41]: 6.6% | viability, T/C [42]: 1.34%

IC50 [1]: 1430 nM | IC50 [2]: 1620 nM | IC50 [3]: 738 nM | IC50 [4]: < 31.6 nM | IC50 [5]: < 31.6 nM | IC50 [6]: < 31.6 nM
SMILES: CCC(CC)c1cc(NC2CCC(N)C2)n2nccc2n1 (centres undefined) + CCn1c(-c2cc(N3CCN(C)CC3)cnc2C(C)OC)c2c3cc(ccc31)-c1csc(n1)CC(NC(=O)C1CC1C)C(=O)N1CCCC(N1)C(=O)OCC(C)(C)C2
viability, T/C [7]: 104% | viability, T/C [8]: 94.4% | viability, T/C [9]: 101% | viability, T/C [10]: 72.3% | viability, T/C [11]: 0.36% | viability, T/C [12]: 0.25% | viability, T/C [13]: 96.1% | viability, T/C [14]: 93.5% | viability, T/C [15]: 102% | viability, T/C [16]: 85.8% | viability, T/C [17]: 0.43% | viability, T/C [18]: 0.14% | viability, T/C [19]: 114% | viability, T/C [20]: 117% | viability, T/C [21]: 115% | viability, T/C [22]: 26.6% | viability, T/C [23]: 0.16% | viability, T/C [24]: 0.13% | viability, T/C [25]: 36.7% | viability, T/C [26]: 34.9% | viability, T/C [27]: 49.8% | viability, T/C [28]: 2.49% | viability, T/C [29]: 0.12% | viability, T/C [30]: 0.1% | viability, T/C [31]: 6.21% | viability, T/C [32]: 6.5% | viability, T/C [33]: 6.35% | viability, T/C [34]: 0.97% | viability, T/C [35]: 0.11% | viability, T/C [36]: 0.09% | viability, T/C [37]: 4.59% | viability, T/C [38]: 3.76% | viability, T/C [39]: 2.94% | viability, T/C [40]: 1.37% | viability, T/C [41]: 0.14% | viability, T/C [42]: 0.12%

IC50 (curve of compound): 18.3 nM [middle of 4 runs]
SMILES: Nc1ccn(C2OC(CO)C(O)C2(F)F)c(=O)n1 (centres undefined)
viability, T/C (compound 0.00316 µM): 106% [middle of 4 runs] | viability, T/C (compound 0.0316 µM): 0.89% (2×) and 1.85% and 1.95% | viability, T/C (compound 0.1 µM): 1.62% [middle of 4 runs] | viability, T/C (compound 0.316 µM): 1.71% [middle of 4 runs] | viability, T/C (compound 1 µM): 1.37% [middle of 4 runs]
